Assays:
[1] = death case, cited from earlier work; for central blood (CB) levels versus peripheral blood (PB) levels: PMI: 20 h, ref Zaitsu et al. ([2015])
[2] = design: method as in Walle et al. [2023]; settings: authentic fatal case, comparable survival time after drug intake; ref Walle et al. [2023]; cited from earlier work
[3] = Perimortem and postmortem concentrations in tissues and body fluids after pulmonary administration of 5F-MDMB-P7AICA to pigs (LC-MS/MS); format: in vivo; settings: pig
Experimental: The experiments were conducted in compliance with the German legislation on protection of animals and the National Institutes of Health Guide for the Care and Use of Laboratory Animals (permission number 32/2018). Six domestic male pigs (Swabian Hall strain; body weight [BW] 40–51.2 kg, 3 months old) were kept with free access to water and standard daily food (OlymPig fattening feed, Raiffeisen, Münster, Germany). One night prior to the experiments, the animals were kept fasting. […] The room temperature was 22 ± 1 °C with a humidity of 55 ± 10%.
As previously described (Doerr et al. [2020]; Schaefer et al. [2019], [2020a]), an ethanolic solution of 5 mg/mL 5F-MDMB-P7AICA was prepared. An aliquot of 1.600–2.048 mL was filled up with ethanol to a total volume of 2 mL, if needed to achieve a concentration of 200 µg per kg BW. The SC was administered inhalatively over 6.5–8 min, using a M-Neb flow + ventilation ultrasonic nebulizer MN-300/7 (Nebutec, Elsenfeld, Germany) in the inspiration-triggered mode.
Animal euthanasia was conducted eight hours after the drug administration using T 61 (embutramide, 0.12 mL/kg BW, Intervet Deutschland GmbH, Unterschleißheim, Germany). Afterwards, the abdominal cavity was opened. Samples of the following organs, tissues and body fluids were collected (PMI 0) and stored at − 20 °C until further analysis: Brain (cerebrum), lungs and liver with no differentiation between the lobes, kidneys, muscle tissue (from the hindleg), adipose tissue (subcutaneous (sc), dorsal, perirenal), bile fluid, duodenum content, urine (only at PMI 0) and PB (V. jugularis) as well as CB.
The abdominal cavity was sutured leaving the organs in situ and the animal bodies were kept at room temperature in a supine position. Analogously, samples were taken again after 24, 48 and 72 h (PMI 1–3), respectively. Yet, PM PB specimens were obtained by sampling the coagulated blood from the V. femoralis or V. brachialis. For this purpose, the whole vessel was sampled and the blood was drawn therefrom using a pipette with a wide lumen.
Specimens were prepared according to a previous published method (Schaefer et al. [2017], [2019], [2020a]) with changes regarding the applied buffers and the amount of acetonitrile. An amount of 2 g of solid tissue (brain, lung, liver, kidney and muscle tissue) was homogenized (1:5 w/w with water), respectively and 1 g of body fluids (bile fluid, duodenum content, and urine) was diluted (1:10 w/w for bile and duodenum content, 1:5 w/w for urine, respectively, with water). The samples were stored at − 20 °C.
To determine the standard addition calibration curves, four 0.5 g aliquots were added to 20 µL of an ethanolic stable-isotope-labeled internal standard solution (SIL-IS, 1 ng/20 µL AB-FUBINACA-d4) and 25 µL of ethanol or an ethanolic solution of the analytes.
Subsequently, the solution was mixed with 500 µL of acetate buffer and 50 µL of β-glucuronidase/arylsulfatase and incubated for 2 h at 60 °C to induce enzymatic hydrolysis of the glucuronidated DBA (phase-II metabolite).
For the following protein precipitation, the samples were mixed with 500 µL of acetonitrile and centrifuged at 3500g for 8 min. The supernatants were transferred to 1 mL phosphate buffer (pH 9) vortexed and centrifuged at 3500g for 8 min again.
Solid phase extraction (SPE) was carried out using Strata C18 end capped cartridges (Phenomenex, Aschaffenburg, Germany), previously conditioned with 2 × 3 mL methanol and 3 mL phosphate buffer. After loading the samples, the columns were washed with 3 mL phosphate buffer, 3 mL acetic acid (0.25 M) and 3 mL deionized water, respectively. 60 μL acetone was added and columns were dried for 5 min using negative pressure (about 33 kPa). Thereafter, the analytes were eluted with a mixture of 1.5 mL methanol-acetone (1:1, v/v) and the eluate was evaporated under a gentle stream of nitrogen at 60 °C. […]

[4] = 200 µg/kg BW inhalative, PMI 0 (8 h after administration)
[5] = 200 µg/kg BW inhalative, PMI 1 (24 h after euthanasia, room temperature)
[6] = 200 µg/kg BW inhalative, PMI 2 (48 h after euthanasia, room temperature)
[7] = 200 µg/kg BW inhalative, PMI 3 (72 h after euthanasia, room temperature)

Structure (SMILES): N#CCCCCn1cc(C(=O)c2cccc3ccccc23)c2ccccc21 [AM-2232]
- central blood (CB) levels versus peripheral blood (PB) levels [1]: significantly exceeded

Structure (SMILES): CN1CCCCC1Cn1cc(C(=O)c2cccc3ccccc23)c2ccccc21 (stereo not drawn) [AM-1220]
- central blood (CB) levels versus peripheral blood (PB) levels [1]: significantly exceeded

Structure (SMILES): COC(=O)[C@@H](NC(=O)c1cn(CC2CCCCC2)c2ccccc12)C(C)(C)C [MDMB-CHMICA]
- quotient of central/peripheral blood (C/P ratio) ([1]; 12 h after death, ref Gaunitz et al. [2018]): ~1

Structure (SMILES): Cc1ccc(C(=O)c2cn(CCCCCF)c3ccccc23)c2ccccc12 [MAM-2201]
- central blood (CB) levels versus peripheral blood (PB) levels [1]: significantly exceeded

Structure (SMILES): CC(C)(C)C(NC(=O)c1cn(CCCCCF)c2ncccc12)C(=O)O (stereo not drawn) [DBA, 5F-MDMB-P7AICA-dimethylbutanoic acid]
- CB concentration in fatal case [2]: 46 ng/mL
- PB concentration in fatal case [2]: 5.7 ng/mL
- Mean concentration ± SD in CB (central blood) [3, 4]: 0.22 ± 0.11 n = 6 ng/mL
- Mean concentration ± SD in bile fluid [3, 4]: 57 ± 100 n = 6 ng/g
- Mean concentration ± SD in brain [3, 4]: tested negative and neg
- Mean concentration ± SD in dorsal fat [3, 4]: 0.60 ± 0.35 n = 6 ng/g
- Mean concentration ± SD in duodenum content [3, 4]: 82 ± 72 n = 6 ng/g
- Mean concentration ± SD in kidney [3, 4]: 5.4 ± 4.7 n = 6 ng/g
- Mean concentration ± SD in liver [3, 4]: 0.87 ± 0.37 n = 6 ng/g
- Mean concentration ± SD in lung [3, 4]: 0.20 ± 0.071 n = 4 ng/g
- Mean concentration ± SD in muscle [3, 4]: 0.14 ± 0.011 n = 3 ng/g
- Mean concentration ± SD in perirenal fat [3, 4]: 8.8 ± 5.6 n = 6 ng/g
- Mean concentration ± SD in s.c. fat [3, 4]: 1.1 ± 1.1 n = 6 ng/g
- Mean concentration ± SD in urine [3, 4]: 78 ± 45 n = 6 ng/g
- Mean concentration ± SD in CB (central blood) [3, 5]: 0.32 ± 0.40 n = 5 ng/mL
- Mean concentration ± SD in PB (peripheral blood) [3, 5]: 0.47 ± 0.21 n = 6 ng/mL
- Mean concentration ± SD in bile fluid [3, 5]: 37 ± 71 n = 6 ng/g
- Mean concentration ± SD in brain [3, 5]: 0.13 ± 0.056 n = 6 ng/g
- Mean concentration ± SD in dorsal fat [3, 5]: 0.28 ± 0.19 n = 6 ng/g
- Mean concentration ± SD in duodenum content [3, 5]: 13 ± 15 n = 6 ng/g
- Mean concentration ± SD in kidney [3, 5]: 5.1 ± 5.0 n = 6 ng/g
- Mean concentration ± SD in liver [3, 5]: 1.2 ± 1.4 n = 6 ng/g
- Mean concentration ± SD in lung [3, 5]: 0.33 ± 0.21 n = 5 ng/g
- Mean concentration ± SD in muscle [3, 5]: 0.10 ± 0.027 n = 6 ng/g
- Mean concentration ± SD in perirenal fat [3, 5]: 1.0 ± 1.2 n = 5 ng/g
- Mean concentration ± SD in s.c. fat [3, 5]: 0.45 ± 0.46 n = 5 ng/g
- Mean concentration ± SD in CB (central blood) [3, 6]: 0.21 ± 0.17 n = 5 ng/mL
- Mean concentration ± SD in PB (peripheral blood) [3, 6]: 0.48 ± 0.16 n = 6 ng/mL
- Mean concentration ± SD in brain [3, 6]: 0.18 ± 0.065 n = 6 ng/g
- Mean concentration ± SD in dorsal fat [3, 6]: 0.16 ± 0.064 n = 4 ng/g
- Mean concentration ± SD in kidney [3, 6]: 7.0 ± 5.9 n = 6 ng/g
- Mean concentration ± SD in liver [3, 6]: 1.8 ± 1.2 n = 6 ng/g
- Mean concentration ± SD in lung [3, 6]: 0.92 ± 0.69 n = 6 ng/g
- Mean concentration ± SD in muscle [3, 6]: 0.11 ± 0.047 n = 5 ng/g
- Mean concentration ± SD in perirenal fat [3, 6]: 2.0 ± 1.7 n = 6 ng/g
- Mean concentration ± SD in s.c. fat [3, 6]: 0.18 ± 0.086 n = 5 ng/g
- Mean concentration ± SD in CB (central blood) [3, 7]: 0.20 ± 0.10 n = 5 ng/mL
- Mean concentration ± SD in PB (peripheral blood) [3, 7]: 0.28 ± 0.093 n = 6 ng/mL
- Mean concentration ± SD in brain [3, 7]: 0.16 ± 0.043 n = 6 ng/g
- Mean concentration ± SD in dorsal fat [3, 7]: 0.11 ± 0.033 n = 5 ng/g
- Mean concentration ± SD in duodenum content [3, 7]: 9.0 ± 17 n = 6 ng/g
- Mean concentration ± SD in kidney [3, 7]: 6.5 ± 5.9 n = 6 ng/g
- Mean concentration ± SD in liver [3, 7]: 2.8 ± 1.9 n = 6 ng/g
- Mean concentration ± SD in lung [3, 7]: 0.89 ± 0.57 n = 5 ng/g
- Mean concentration ± SD in muscle [3, 7]: 0.17 ± 0.089 n = 6 ng/g
- Mean concentration ± SD in perirenal fat [3, 7]: 4.6 ± 3.7 n = 6 ng/g
- Mean concentration ± SD in s.c. fat [3, 7]: 0.27 ± 0.17 n = 5 ng/g
- Concentration in bile fluid ([3]; 200 µg/kg BW inhalative, PMI 3 (72 h after euthanasia, room temperature), only sampled from 2 pigs): 7.5–120 n = 2^2 ng/g
- Mean concentration ± SD in PB (peripheral blood) ([3]; 5F-MDMB-P7AICA 200 µg/kg BW inhalative, PMI 0 (8 h after administration)): 0.18 ± 0.11 n = 6 ng/mL
- Postmortem redistribution (PMR) ([3]; 3 days storage at room temperature): no relevant PMR was observed
- Amount in the remaining tissues ([3]; PMI 0, tissues other than urine, bile fluid, duodenum content, kidney, perirenal fat): less than 1 ng/g
- Concentration change in bile and duodenum ([3]; PMI 2 compared to PMI 0, p < 0.05): decrease was statistically significant
- Concentration change in dorsal and subcutaneous fat specimens ([3]; over the PMI): significant lower concentrations over time

Reference: PMC11402846, “Does a postmortem redistribution affect the concentrations of the 7 azaindole-derived synthetic cannabinoid 5F-MDMB-P7AICA in tissues and body fluids following pulmonary administration to pigs?” (Archives of Toxicology, 2024)
